Experimental findings from BindingDB's records for doi:10.1021/acschembio.6b00304 (Icahn School of Medicine At Mount Sinai, 2016) are described below.

Each structure is given as a SMILES string. pIC50: −log10 of the molar value.

For this assay, the target named is T1, Solute carrier family 2, facilitated glucose transporter member 1 (Homo sapiens, UniProt P11166).
T1 sequence (P11166 whole entry): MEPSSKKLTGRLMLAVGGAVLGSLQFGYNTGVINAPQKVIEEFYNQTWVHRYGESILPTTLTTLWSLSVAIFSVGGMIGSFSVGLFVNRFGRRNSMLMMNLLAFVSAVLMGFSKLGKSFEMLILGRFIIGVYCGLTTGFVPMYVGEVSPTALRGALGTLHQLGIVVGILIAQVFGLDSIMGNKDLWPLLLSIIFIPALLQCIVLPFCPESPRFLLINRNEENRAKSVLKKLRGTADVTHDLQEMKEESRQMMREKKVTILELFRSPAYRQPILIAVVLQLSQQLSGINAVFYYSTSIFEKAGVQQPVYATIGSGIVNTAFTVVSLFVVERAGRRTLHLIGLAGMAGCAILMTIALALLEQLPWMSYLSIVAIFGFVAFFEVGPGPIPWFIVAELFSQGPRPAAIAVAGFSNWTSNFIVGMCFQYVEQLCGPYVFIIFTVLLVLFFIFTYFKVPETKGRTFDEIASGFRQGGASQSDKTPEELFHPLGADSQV
Description: [3H]-2-Deoxy-D-glucose ([3H]-2-DG) Uptake Assay. As to the method:
The stably transfected CHO cells were seeded in poly 24-well plates and were grown to 80−90% confluence. […] The known hGLUT1 inhibitor phloretin (Accela ChemBio, San Diego, CA) was included as a positive control. […] Compounds were obtained from the National Cancer Institute (NCI) or purchased from commercial vendors. The reaction was terminated by washing cells twice with ice-cold PBS, followed by the addition of 200 μL of lysis buffer (0.1% (w/v) SDS, 0.1 N NaOH).Intracellular radioactivity was determined by scintillation counting.

One may read the pIC50 as −log10 of the IC50, conventionally taken in molar units. Low readings indicate a large IC50, high ones a small IC50. For `O=c1[nH]c(=O)c2ncn(-c3ccccc3)c2[nH]1` [PUG-2], the pIC50 is 4.23.

`NNc1nc(NCc2ccco2)c2nc[nH]c2n1` [PUG-3] showed a pIC50 of 4.57.

The compound `c1ccc(CNc2ncnc3n[nH]nc23)cc1` [PUG-4] gave a pIC50 of 4.52.

For the compound `O=C(CCc1ccc(O)cc1)c1c(O)cc(O)cc1O[C@H]1O[C@@H](CO)[C@H](O)[C@@H](O)[C@@H]1O` [PUG-5 (Phlorizin)], the pIC50 is 4.64.

On to `CC[C@@H]1O[C@H](c2cc(O)cc(/C=C/c3ccc(O)c(O)c3)c2)[C@@H](O)[C@H](O)[C@H]1O` [PUG-6], for which the pIC50 is 4.42.

`O=c1[nH]ncc2c1Sc1cn[nH]c(=O)c1S2` [PUG-7] showed a pIC50 of 4.93.

As to `O=c1[nH][nH]c(=O)c2[nH]cnc12` [PUG-8], the pIC50 is 4.65.
